According to PMC3583093 (Evidence-based Complementary and Alternative Medicine : eCAM, 2013):
Values joined by “and” are separate entries in the source; they are usually repeats but may differ in a detail not shown here. Equal entries are not always repeated. “Also recorded” adds a separate entry of the source. Where two headings read alike, the source gives them in different places.

Key:
[1] = target: T1, murine TYR (Mus musculus, UniProt P11344); test: In vitro TYR activity assay with lysates of murine B16/F10 cells; type: biochemical
T1 sequence (P11344 19-533): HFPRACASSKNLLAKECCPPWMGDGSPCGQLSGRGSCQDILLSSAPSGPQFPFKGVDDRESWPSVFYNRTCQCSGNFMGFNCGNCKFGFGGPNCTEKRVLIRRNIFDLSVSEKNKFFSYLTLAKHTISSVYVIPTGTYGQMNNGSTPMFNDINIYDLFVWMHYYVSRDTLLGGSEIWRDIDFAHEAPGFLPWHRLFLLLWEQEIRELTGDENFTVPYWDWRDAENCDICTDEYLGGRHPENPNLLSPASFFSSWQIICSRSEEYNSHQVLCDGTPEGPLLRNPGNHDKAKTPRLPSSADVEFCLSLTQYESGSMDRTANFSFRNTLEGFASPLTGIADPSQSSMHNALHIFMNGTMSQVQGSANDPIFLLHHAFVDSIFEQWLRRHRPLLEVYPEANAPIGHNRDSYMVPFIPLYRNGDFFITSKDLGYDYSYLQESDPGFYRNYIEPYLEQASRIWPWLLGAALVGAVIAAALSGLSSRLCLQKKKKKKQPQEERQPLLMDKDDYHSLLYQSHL

[2] = test system: mushroom TYR; test: In vitro mushroom TYR activity assay; type: biochemical; details: compared with human and murine TYRs
Protocol: In vitro TYR assays were run for human, murine, and mushroom TYRs. The lysates of HEK293-TYR cells were used as a human TYR preparation in most experiments. In some experiments, the lysates of murine B16/F10 cells (Figure 5), HEK293 cells, and HEMs (Figure 6) were used for comparative purposes. Mushroom TYR was purchased from Sigma-Aldrich. The reaction mixture (200 μL) containing either cell lysates (40 μg protein) or mushroom TYR (20 U) and 0.5 mM L-tyrosine, 1 μM DOPA in 100 mM sodium phosphate buffer (pH 6.8) was placed on a 96-well microplate and incubated at 37°C. The formation of DOPA chrome was monitored by measuring absorbance at 490 nm with a BioRad Model 680 microplate reader (Bio-Rad Laboratories, Inc., Hercules, CA, USA). Assays were also run in the absence of TYR enzyme to correct for potential nonenzymatic reactions. Samples and reference inhibitors were included in reaction mixtures at different concentrations.

[3] = target: T1, murine TYR; design: method as in Yanagihara et al. [30]; details: ref Yanagihara et al. [30]; read-out: IC50 against murine TYR (converted); cited from earlier work
[4] = target: T2, human TYR (Homo sapiens, UniProt P14679); test: In vitro TYR activity assay with lysates of HEK293-TYR cells; type: biochemical; details: for IC50: lysates of HEK293-TYR cells, read-out: IC50 against human TYR activity (converted)
T2 construct: expressed in transfected cells
T2 sequence (P14679 19-529): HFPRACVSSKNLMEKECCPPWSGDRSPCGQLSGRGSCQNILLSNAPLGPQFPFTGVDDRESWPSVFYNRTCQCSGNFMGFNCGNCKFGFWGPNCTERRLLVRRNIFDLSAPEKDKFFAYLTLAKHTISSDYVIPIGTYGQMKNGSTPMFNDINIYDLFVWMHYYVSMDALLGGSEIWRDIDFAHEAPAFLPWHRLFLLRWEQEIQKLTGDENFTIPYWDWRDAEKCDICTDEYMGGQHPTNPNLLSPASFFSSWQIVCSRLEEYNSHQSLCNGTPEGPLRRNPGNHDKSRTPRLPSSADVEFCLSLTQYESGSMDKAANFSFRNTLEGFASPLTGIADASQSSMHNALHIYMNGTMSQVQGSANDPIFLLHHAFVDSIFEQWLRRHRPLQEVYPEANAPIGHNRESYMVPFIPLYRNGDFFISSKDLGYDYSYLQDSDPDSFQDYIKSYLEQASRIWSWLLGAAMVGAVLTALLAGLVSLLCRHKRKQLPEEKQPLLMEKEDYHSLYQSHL

[5] = target: T2, human TYR; test: In vitro TYR activity assay with lysates of HEMs; type: biochemical; details: read-out: IC50 against human TYR activity (converted)
Protocol: Human epidermal melanocytes (HEMs), derived from moderately pigmented neonatal foreskins, were obtained from Cascade Biologics (Portland, OR, USA). Cells were grown in Medium 254 supplemented with human melanocyte growth supplement (Cascade Biologics) and antibiotics. HEK293 cells and murine melanoma B16/F10 cells (CRL-6475) were obtained from the American Type Culture Collection (Manassas, VA, USA). HEK 293 cells were transformed into HEK293-TYR cells stably expressing human TYR, as previously described. HEK293 cells, HEK293-TYR cells, and murine melanoma B16/F10 cells were cultured in growth medium (Dulbecco's minimum Eagle's medium (DMEM) containing 10% fetal bovine serum and antibiotics (100 U mL^−1 penicillin, 0.1 mg mL^−1 streptomycin, and 0.25 µg mL^−1 amphotericin B)). Cells were cultured at 37°C in a humidified atmosphere containing 5% CO2 and 95% air. Cells were lysed in ice-cold lysis buffer (10 mM Tris-Cl, pH 7.4, 120 mM NaCl, 25 mM KCl, 2.0 mM EGTA, 1.0 mM EDTA, and 0.5% Triton X-100 and protease inhibitor cocktail) and centrifuged at 13,000 ×g for 15 min at 4°C to obtain clear supernatants which were used as cell lysates.
In vitro TYR assays were run for human, murine, and mushroom TYRs. […] The formation of DOPA chrome was monitored by measuring absorbance at 490 nm with a BioRad Model 680 microplate reader (Bio-Rad Laboratories, Inc., Hercules, CA, USA). […]

[6] = test system: human epidermal melanocytes (HEMs); test: Cell viability of HEMs (MTT); type: cell-based; details: repeated treatment for 6 days
Protocol: (§1) Melanogenesis in HEMs was determined as previously described. Cells were pretreated with test material for 60 min, and then melanogenesis was stimulated by adding L-tyrosine (1.0 mM). Media were replaced every other day, and cells were cultured for 6 days. Intracellular melanin was extracted using 0.1 M NaOH at 60°C for 60 min, quantified by measuring absorbance at 490 nm, and normalized for protein content using the Bio-Rad DC assay. Cell viabilities were determined using 3-[4,5-dimethylthiazol-2-yl]-2,5-diphenyltetrazolium bromide.

[7] = target: T1, murine TYR; design: method as in Kim et al. [29]; details: at 100 µM or 22.8 µg mL^−1; ref Kim et al. [29]; cited from earlier work
[8] = test system: human epidermal melanocytes (HEMs); test: Melanin synthesis in HEMs stimulated by L-tyrosine; type: cell-based; details: 1.0 mM L-tyrosine, repeated treatment for 6 days
Protocol: as §1

[9] = read-out: IC50 against murine TYR activity (converted)

| Structure (SMILES) | IC50 ([1]; dose-response curve at low concentration range, read-out: IC50 against murine TYR) [µM] | IC50 [1, 9] [µM] | effect on mushroom TYR activity [2] | IC50 [3] [µM] | inhibition of human TYR activity ([4]; at 10~30 µg mL^−1, lysates of HEK293-TYR cells and HEMs) | IC50 [4] | IC50 [5] | concentration causing cytotoxicity in HEMs [6] | inhibition of murine TYR [7] [%] | effect on melanin synthesis in HEMs [8] | effect on melanin synthesis in HEMs ([8]; listed as Resveratrol) | cytotoxic effect in HEMs ([6]; at 100 µM) |
| --- | --- | --- | --- | --- | --- | --- | --- | --- | --- | --- | --- | --- |
| Oc1ccc(/C=C/c2cc(O)cc(O)c2)cc1 [resveratrol] | 4.3 | 4.38 | much smaller effect on mushroom TYR activity; also recorded: very low | 10.1 | 80~90% | 1.71 µM and 1.7 µM | 5.3 µM and 5.26 µM | above 10 µM | 32.7 | dose dependently attenuated; also recorded: reduce melanin synthesis in HEMs at subtoxic concentrations | inhibited melanin synthesis by human epidermal melanocytes at subtoxic concentrations | – |
| O=C(O)/C=C/c1ccc(O)cc1 [p-coumaric acid, reference compound] | – | 12.2 | – | – | – | 4.02 µM | – | – | – | dose dependently attenuated | – | only a little cytotoxic effect |
